Laboratory results from PubChem BioAssay AID1963977 (Molecular Pharmacology Branch, DTP, NCI, 2024).

System: 624824-186-R-J3-PDC multicell spheroids, viability
Assay: Anticancer human tumor 624824-186-R-J3-PDC patient-derived colon adenocarcinoma cell line growth inhibition [PI3K]
Conditions: for IC50: curve of first compound; for viability, T/C: stronger effect = lower value
How it was run: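 Agents were dosed from a top concentration near clinical Cmax (otherwise 10 microM) in half-log decrements, alone or combined with PI3K inhibitors. The spheroids contain tumor cells plus endothelial (HUVEC) and MSC stroma; viability is measured.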

[1] = second compound 0.0316 µM, first compound 0.0316 µM
[2] = second compound 0.0316 µM, first compound 0.1 µM
[3] = second compound 0.0316 µM, first compound 0.316 µM
[4] = second compound 0.0316 µM, first compound 1 µM
[5] = second compound 0.0316 µM, first compound 3.16 µM
[6] = second compound 0.0316 µM, first compound 10 µM
[7] = second compound 0.1 µM, first compound 0.0316 µM
[8] = second compound 0.1 µM, first compound 0.1 µM
[9] = second compound 0.1 µM, first compound 0.316 µM
[10] = second compound 0.1 µM, first compound 1 µM
[11] = second compound 0.1 µM, first compound 3.16 µM
[12] = second compound 0.1 µM, first compound 10 µM
[13] = second compound 0.316 µM, first compound 0.0316 µM
[14] = second compound 0.316 µM, first compound 0.1 µM
[15] = second compound 0.316 µM, first compound 0.316 µM
[16] = second compound 0.316 µM, first compound 1 µM
[17] = second compound 0.316 µM, first compound 3.16 µM
[18] = second compound 0.316 µM, first compound 10 µM
[19] = second compound 1 µM, first compound 0.0316 µM
[20] = second compound 1 µM, first compound 0.1 µM
[21] = second compound 1 µM, first compound 0.316 µM
[22] = second compound 1 µM, first compound 1 µM
[23] = second compound 1 µM, first compound 3.16 µM
[24] = second compound 1 µM, first compound 10 µM
[25] = second compound 3.16 µM, first compound 0.0316 µM
[26] = second compound 3.16 µM, first compound 0.1 µM
[27] = second compound 3.16 µM, first compound 0.316 µM
[28] = second compound 3.16 µM, first compound 1 µM
[29] = second compound 3.16 µM, first compound 3.16 µM
[30] = second compound 3.16 µM, first compound 10 µM
[31] = second compound 10 µM, first compound 0.0316 µM
[32] = second compound 10 µM, first compound 0.1 µM
[33] = second compound 10 µM, first compound 0.316 µM
[34] = second compound 10 µM, first compound 1 µM
[35] = second compound 10 µM, first compound 3.16 µM
[36] = second compound 10 µM, first compound 10 µM
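Also: spheroids exposed to agents for seven days before luminescence read.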
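For viability, T/C in this document: luminescent signal used as a stand-in for spheroid viability; percent viability relative to DMSO vehicle control wells taken as 100%.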

For `C#Cc1c(F)ccc2cc(O)cc(-c3ncc4c(N5CC6CCC(C5)N6)nc(OCC56CCCN5CC(F)C6)nc4c3F)c12` (centres undefined) + Cc1nc(NC(=O)N2CCCC2C(N)=O)sc1-c1ccnc(C(C)(C)C(F)(F)F)c1, the IC50 (second compound 0.0316 µM) was over 10 µM, the IC50 (second compound 0.1 µM) was over 10 µM and the IC50 (second compound 0.316 µM) was over 10 µM. It also gave an IC50 (second compound 1 µM) of over 10 µM, an IC50 (second compound 3.16 µM) of over 10 µM and an IC50 (second compound 10 µM) of over 10 µM. It also gave a viability, T/C [1] of 108%, a viability, T/C [2] of 97% and a viability, T/C [3] of 121%. For the same compound, the viability, T/C [4] was 102%, the viability, T/C [5] was 108% and the viability, T/C [6] was 100%. The viability, T/C [7] was 111%, the viability, T/C [8] was 98.2% and the viability, T/C [9] was 94.9%. The viability, T/C [10] was 103%, the viability, T/C [11] was 116% and the viability, T/C [12] was 102%. The viability, T/C [13] was 103%, the viability, T/C [14] was 102% and the viability, T/C [15] was 108%. For the same compound, the viability, T/C [16] was 101%, the viability, T/C [17] was 112% and the viability, T/C [18] was 108%. For the same compound, the viability, T/C [19] was 100%, the viability, T/C [20] was 97.4% and the viability, T/C [21] was 114%. It also gave a viability, T/C [22] of 100%, a viability, T/C [23] of 112% and a viability, T/C [24] of 107%. The viability, T/C [25] was 88.9%, the viability, T/C [26] was 88.2% and the viability, T/C [27] was 83%. It also gave a viability, T/C [28] of 85.2%, a viability, T/C [29] of 98.2% and a viability, T/C [30] of 80.4%. The viability, T/C [31] was 71.4%, the viability, T/C [32] was 70.9% and the viability, T/C [33] was 68.9%. For the same compound, the viability, T/C [34] was 64.6%, the viability, T/C [35] was 58.8% and the viability, T/C [36] was 54.3%.
`CC1(C)CCC(Nc2ncc(C(F)(F)F)c(-c3c[nH]c4c(P(C)(C)=O)c(C#N)ccc34)n2)CN1` (centres undefined) + Cc1nc(NC(=O)N2CCCC2C(N)=O)sc1-c1ccnc(C(C)(C)C(F)(F)F)c1 showed an IC50 (second compound 0.0316 µM) of 5.61 µM, an IC50 (second compound 0.1 µM) of 5.42 µM and an IC50 (second compound 0.316 µM) of 5.18 µM. It also gave an IC50 (second compound 1 µM) of 4.6 µM, an IC50 (second compound 3.16 µM) of 1.83 µM and an IC50 (second compound 10 µM) of under 0.0316 µM. The viability, T/C [1] was 113%, the viability, T/C [2] was 92% and the viability, T/C [3] was 106%. For the same compound, the viability, T/C [4] was 101%, the viability, T/C [5] was 95% and the viability, T/C [6] was 4.64%. For the same compound, the viability, T/C [7] was 107%, the viability, T/C [8] was 89.9% and the viability, T/C [9] was 110%. For the same compound, the viability, T/C [10] was 102%, the viability, T/C [11] was 90.3% and the viability, T/C [12] was 4.24%. For the same compound, the viability, T/C [13] was 97.5%, the viability, T/C [14] was 103% and the viability, T/C [15] was 88%. For the same compound, the viability, T/C [16] was 92.2%, the viability, T/C [17] was 84.5% and the viability, T/C [18] was 4.3%. The viability, T/C [19] was 76.1%, the viability, T/C [20] was 75.9% and the viability, T/C [21] was 79.3%. For the same compound, the viability, T/C [22] was 79.4%, the viability, T/C [23] was 72.3% and the viability, T/C [24] was 3.52%. For the same compound, the viability, T/C [25] was 59.1%, the viability, T/C [26] was 54.3% and the viability, T/C [27] was 53.7%. It also gave a viability, T/C [28] of 55.3%, a viability, T/C [29] of 45.6% and a viability, T/C [30] of 2.38%. It also gave a viability, T/C [31] of 35.5%, a viability, T/C [32] of 34.1% and a viability, T/C [33] of 36.2%. It also gave a viability, T/C [34] of 34%, a viability, T/C [35] of 39% and a viability, T/C [36] of 1.61%.
